In the supplement of paper PMC4862054:

Tests used:
CAL-120 [1] = conditions: 72 h
How it was run: (§1)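 Plates of 384 wells holding compound in 5 µl medium received breast cancer cell lines in 20 µl suspension and were incubated 72 h. CellTiter-Blue (2.5 µl, 2 h, 37 °C) was used for viability, read at 560/590 nm, and every plate was normalised to vehicle and a positive kill control and assessed by Z'-factor. The EC50 derives from a percent-inhibition dose-response curve fit censored at the highest concentration, leaving out rows whose drug sensitivity score was zero.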

HCC1143 [2] = conditions: 72 h
How it was run: as §1

SK-BR-3 [3] = conditions: 72 h
How it was run: as §1

BT-549 = conditions: 72 h
How it was run: as §1

HCC1599 [4] = conditions: 72 h
How it was run: as §1

MDA-MB-468 [5] = conditions: 72 h
How it was run: as §1

DU-4475 [6] = conditions: 72 h
How it was run: as §1

HDQ-P1 [7] = conditions: 72 h
How it was run: as §1

MDA-MB-453 [8] = conditions: 72 h
How it was run: as §1

MDA-MB-231 [9] = conditions: 72 h
How it was run: as §1

CAL-85-1 [10] = conditions: 72 h
How it was run: as §1

CAL-51 [11] = conditions: 72 h
How it was run: as §1

MFM-223 [12] = conditions: 72 h
How it was run: (§2)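 EC50 was fitted from dose-response curves and censored at the highest concentration tested. To build those curves, breast cancer cell lines (20 µl suspension) were seeded into 384-well plates containing compound at 5 concentrations in 10-fold steps over a compound-specific 10,000-fold range and incubated for 72 h. Readouts were CellTox Green fluorescence (485/520 nm) for cell death and then CellTiter-Glo luminescence for viability, with each plate normalised to 0.1 % DMSO and a positive kill control.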

MDA-MB-453 [13] = experiment: drug sensitivity score (DSS), CellTox Green (DSS (AUC-based score)); higher = stronger drug effect (viability inhibition or cytotoxicity); extreme values may be limits of the assay; conditions: incubation time: 72 h
How it was run: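 Breast cancer cell lines were seeded in 20 µl suspension into 384-well plates already holding compound and incubated for 72 h. Each compound was tested at 5 concentrations in 10-fold steps across its own 10,000-fold range. Plates were normalised to 0.1 % DMSO and a positive kill control after CellTox Green and then CellTiter-Glo readings. The area under the fitted dose-response curve served as the basis for the drug sensitivity score.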

DU-4475 [14] = conditions: 72 h; remark: listed apart in the source
How it was run: as §2

MCF-10A [15] = conditions: 72 h
How it was run: as §2

BT-474 [16] = conditions: 72 h
How it was run: as §2

HDQ-P1 [17] = conditions: 72 h; remark: listed apart in the source
How it was run: as §2

Hs578T [18] = conditions: 72 h
How it was run: as §2

CAL-85-1 [19] = conditions: 72 h; remark: listed apart in the source
How it was run: as §2

CAL-120 [20] = conditions: 72 h; remark: listed apart in the source
How it was run: as §2

HCC1143 [21] = conditions: 72 h; remark: listed apart in the source
How it was run: as §2

MDA-MB-436 [22] = conditions: 72 h
How it was run: as §2

CAL-148 [23] = conditions: 72 h
How it was run: as §2

MDA-MB-231 [24] = conditions: 72 h; remark: listed apart in the source
How it was run: as §2

HCC1937 [25] = conditions: 72 h
How it was run: as §2

HCC1599 [26] = conditions: 72 h; remark: listed apart in the source
How it was run: as §2

MDA-MB-453 [27] = conditions: 72 h; remark: listed apart in the source
How it was run: as §2

MDA-MB-468 [28] = conditions: 72 h; remark: listed apart in the source
How it was run: as §2

HCC1937 [29] = conditions: 72 h; remark: listed apart in the source
Method: (§3)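 Drug sensitivity and resistance testing (DSRT) of breast cancer cell lines in 384-well plates, 5 concentrations in 10-fold dilutions over a compound-specific 10,000-fold range. After 72 h, cytotoxicity was read by CellTox Green fluorescence and viability by CellTiter-Glo luminescence (multiplexed), normalised to DMSO and benzethonium chloride controls. EC50 is the inflection point of the fitted dose-response curve (bottom asymptote free, so it can be relative for partial curves) and is censored at the highest tested concentration. Rows with DSS 0 (no meaningful response) were excluded.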

MDA-MB-468 [30] = conditions: 72 h; remark: listed apart in the source
Method: as §3

BT-474 [31] = conditions: 72 h; remark: listed apart in the source
How it was run: as §1

Hs578T [32] = conditions: 72 h; remark: listed apart in the source
How it was run: as §1

MFM-223 [33] = conditions: 72 h; remark: listed apart in the source
How it was run: as §1

MDA-MB-436 [34] = conditions: 72 h; remark: listed apart in the source
How it was run: as §1

HCC1937 [35] = conditions: 72 h; remark: listed apart in the source
How it was run: as §1

CAL-148 [36] = conditions: 72 h; remark: listed apart in the source
How it was run: as §1

CAL-51 [37] = conditions: 72 h; remark: listed apart in the source
How it was run: as §2

SK-BR-3 [38] = conditions: 72 h; remark: listed apart in the source
How it was run: as §2

MCF-10A [39] = conditions: 72 h; remark: listed apart in the source
Method: as §3

Hs578T [40] = conditions: 72 h; remark: listed apart in the source
Method: as §3

MDA-MB-231 [41] = conditions: 72 h; remark: listed apart in the source
Method: as §3

CC[C@H](Nc1ncnc2[nH]cnc12)c1nc2cccc(F)c2c(=O)n1-c1ccccc1 [CAL-101]
EC50, CellTiter-Blue viability (CAL-120 [1]): 8280 nM | EC50, CellTiter-Blue viability (HCC1143 [2]): 2280 nM | EC50, CellTiter-Blue viability (SK-BR-3 [3]): 2160 nM | EC50, CellTiter-Blue viability (BT-549): 2240 nM | EC50, CellTiter-Blue viability (HCC1599 [4]): 94.2 nM | EC50, CellTiter-Blue viability (MDA-MB-468 [5]): 2380 nM | EC50, CellTiter-Blue viability (DU-4475 [6]): 5560 nM | EC50, CellTiter-Blue viability (HDQ-P1 [7]): 5250 nM | EC50, CellTiter-Blue viability (MDA-MB-453 [8]): 2180 nM

CC(=O)Nc1cccc(-n2c(=O)n(C3CC3)c(=O)c3c(Nc4ccc(I)cc4F)n(C)c(=O)c(C)c32)c1
EC50, CellTiter-Blue viability (CAL-120 [1]): 20.6 nM | EC50, CellTiter-Blue viability (HCC1143 [2]): 2.92 nM | EC50, CellTiter-Blue viability (MDA-MB-231 [9]): 1.8 nM | EC50, CellTiter-Blue viability (HCC1599 [4]): 31.5 nM | EC50, CellTiter-Blue viability (MDA-MB-468 [5]): 35.7 nM | EC50, CellTiter-Blue viability (DU-4475 [6]): 0.91 nM | EC50, CellTiter-Blue viability (HDQ-P1 [7]): 4.17 nM | EC50, CellTiter-Blue viability (CAL-85-1 [10]): 19.4 nM | EC50, CellTiter-Blue viability (CAL-51 [11]): 9.94 nM | EC50, CellTiter-Blue viability (MDA-MB-453 [8]): 20.2 nM

COc1cc2c(Oc3ccc4[nH]c(C)cc4c3F)ncnc2cc1OCCCN1CCCC1 [Cediranib]
EC50, CellTiter-Glo (MFM-223 [12]): 338 nM | drug sensitivity score (MDA-MB-453 [13]): 0

O=C(/C=C/c1cccnc1)NCCCCC1CCN(C(=O)c2ccccc2)CC1 [Daporinad]
EC50, CellTiter-Glo (DU-4475 [14]): 6.78 nM | EC50, CellTiter-Glo (MCF-10A [15]): 7.85 nM | EC50, CellTiter-Glo (BT-474 [16]): 40.8 nM | EC50, CellTiter-Glo (HDQ-P1 [17]): 16.3 nM | EC50, CellTiter-Glo (Hs578T [18]): 4.27 nM | EC50, CellTiter-Glo (MFM-223 [12]): 2.11 nM | EC50, CellTiter-Glo (CAL-85-1 [19]): 7.79 nM | EC50, CellTiter-Glo (CAL-120 [20]): 9.73 nM | EC50, CellTiter-Glo (HCC1143 [21]): 8.05 nM | EC50, CellTiter-Glo (MDA-MB-436 [22]): 67.4 nM | EC50, CellTiter-Glo (CAL-148 [23]): 81 nM | EC50, CellTiter-Glo (MDA-MB-231 [24]): 29.6 nM | EC50, CellTiter-Glo (HCC1937 [25]): 6.97 nM | EC50, CellTiter-Glo (HCC1599 [26]): 4.15 nM | EC50, CellTiter-Glo (MDA-MB-453 [27]): 2.71 nM | EC50, CellTiter-Glo (MDA-MB-468 [28]): 3.53 nM | drug sensitivity score (MDA-MB-453 [13]): 0 | EC50, CellTox Green (HCC1937 [29]): 24.1 nM | EC50, CellTox Green (MDA-MB-468 [30]): 596 nM

O=C(/C=C/c1cccnc1)NCCCCC1CCN(C(=O)c2ccccc2)CC1 [FK-866]
EC50, CellTiter-Blue viability (BT-474 [31]): 17.5 nM | EC50, CellTiter-Blue viability (Hs578T [32]): 3.75 nM | EC50, CellTiter-Blue viability (MFM-223 [33]): 4.05 nM | EC50, CellTiter-Blue viability (CAL-120 [1]): 8.66 nM | EC50, CellTiter-Blue viability (HCC1143 [2]): 4.08 nM | EC50, CellTiter-Blue viability (MDA-MB-436 [34]): 5.08 nM | EC50, CellTiter-Blue viability (BT-549): 6.08 nM | EC50, CellTiter-Blue viability (MDA-MB-231 [9]): 20.1 nM | EC50, CellTiter-Blue viability (HCC1937 [35]): 80.3 nM | EC50, CellTiter-Blue viability (HCC1599 [4]): 13.9 nM | EC50, CellTiter-Blue viability (MDA-MB-468 [5]): 3.01 nM | EC50, CellTiter-Blue viability (DU-4475 [6]): 20.1 nM | EC50, CellTiter-Blue viability (HDQ-P1 [7]): 21.3 nM | EC50, CellTiter-Blue viability (CAL-85-1 [10]): 25.7 nM | EC50, CellTiter-Blue viability (CAL-51 [11]): 12.6 nM | EC50, CellTiter-Blue viability (CAL-148 [36]): 34.4 nM | EC50, CellTiter-Blue viability (MDA-MB-453 [8]): 1.68 nM

CCc1cncnc1N1CCN(Cc2nc3ccc(C(F)(F)F)cc3[nH]2)CC1
EC50, CellTiter-Glo (BT-474 [16]): > 10000 nM | EC50, CellTiter-Glo (CAL-120 [20]): > 10000 nM | EC50, CellTiter-Glo (CAL-51 [37]): 543 nM | EC50, CellTiter-Glo (MDA-MB-468 [28]): 1350 nM | drug sensitivity score (MDA-MB-453 [13]): 0

CC1=C(/C=C/C(C)=C/C=C/C(C)=C/C(=O)O)C(C)(C)CCC1 [Tretinoin]
EC50, CellTiter-Glo (MCF-10A [15]): 1990 nM | EC50, CellTiter-Glo (Hs578T [18]): 6610 nM | EC50, CellTiter-Glo (SK-BR-3 [38]): 2210 nM | EC50, CellTiter-Glo (CAL-148 [23]): 354 nM | EC50, CellTiter-Glo (MDA-MB-231 [24]): 2600 nM | EC50, CellTiter-Glo (HCC1599 [26]): 5530 nM | EC50, CellTiter-Glo (MDA-MB-453 [27]): 3230 nM | drug sensitivity score (MDA-MB-453 [13]): 0 | EC50, CellTox Green (MCF-10A [39]): 676 nM | EC50, CellTox Green (Hs578T [40]): 130 nM | EC50, CellTox Green (MDA-MB-231 [41]): 3200 nM | EC50, CellTiter-Blue viability (SK-BR-3 [3]): 731 nM | EC50, CellTiter-Blue viability (HCC1599 [4]): 133 nM | EC50, CellTiter-Blue viability (CAL-148 [36]): 43.5 nM
